Measured values from patent US20240238422A1 (Osprey Biopharmaceuticals, Inc., priority 2021, published 2024).

What was measured:
human CD22 = molecular target: T1, human CD22 (Homo sapiens, UniProt P20273); assay: SPR binding of synthetic Siglec ligands to human CD22 ectodomain (Biacore 8K+); conditions: for Kd: SPR, alkyne-terminating precursors of the PFP linkers, read-out: Human Siglec-2 Binding Affinity; for Human Siglec-2 Binding Affinity: grade in words for the conjugatable Siglec ligand-linker
T1 construct: Fc (human CD22-Fc fusion); purchased R&D Systems AV11968-050
Experimental: (§1) The following ligands were evaluated for mouse and human CD22 binding: 1) BPC-Neu5Gc PEG (Cpd. No. 26463), 2) BPC-Neu5Gc GAL (Cpd. No. 26339), 3) MPB-Neu5Ac PEG (Cpd. No. 26334), 4) MPB-Neu5Ac GAL (Cpd. No. 26409), 5) Neu5Gc PEG (Cpd. No. 26591). All tested compounds are alkyne-terminating precursors of PFP-terminating, conjugatable Siglec Linker structures used in conjugates in the following examples.
(§2) Binding assays for synthetic CD22 ligand binding to CD22 receptor ectodomain were run on a Biacore 8K+ instrument (Cytiva). Surface preparation for CD22 conjugates binding to human or mouse CD22 protein consisted of two steps, covalent immobilization of streptavidin followed by capture of Avi-tagged and biotinylated human CD22-Fc fusion (R&D Systems, Cat #AV11968-050) and a mono-Fc fusion of mouse CD22. Using standard amine coupling protocols, Streptavidin (Invitrogen, Cat #: 434301) was immobilized to a Cytiva CM5 chip (Cytiva, Cat #BR100530) by injecting at 100 ug/mL in Sodium Acetate, pH 4.5 (Cytiva, Cat #BR100350) on both flow cells, yielding a final response of 2500 RU. Capture of biotinylated mono Fc human CD22 was performed on channels 1-4 and mouse CD22 on channels 5-8 on the active flow cell (2) and the reference flow cell (1) was kept as unmodified streptavidin to account for any non-specific binding. Human CD22 or mouse CD22 (mono-Fc fusion, 5 μg/mL) was injected on the active flow cell (2) for 90 seconds at 5 μL/min, yielding about 210 RU of captured constructs.
(§3) Binding experiments of Siglec-ligand conjugated proteins were performed on the surfaces prepared above in HBS-EP+ (10 mM HEPES, 150 mM NaCl, 3 mM EDTA, 0.05% Tween-20, pH 7.5) as the running buffer. Conjugates were serially diluted 1:1 in running buffer from 1 μM to 31.25 nM and injected over both the reference and active flow cells for 90 seconds at 30 μL/min. The conjugates were then allowed to dissociate from the surface for 300 seconds. No regeneration was required as the conjugates completely dissociated from the surface after 30 seconds.

mouse CD22 = molecular target: T2, mouse CD22 (Mus musculus, UniProt P35329); assay: SPR binding of synthetic Siglec ligands to mouse CD22 ectodomain (Biacore 8K+); conditions: for Kd: SPR, alkyne-terminating precursors of the PFP linkers, read-out: Mouse Siglec-2 Binding Affinity; for Mouse Siglec-2 Binding Affinity: grade in words for the conjugatable Siglec ligand-linker
T2 construct: synthetic Siglec ligands for recombinant human and mouse CD22 ectodomains
T2 sequence (P35329 22-708 limits assumed): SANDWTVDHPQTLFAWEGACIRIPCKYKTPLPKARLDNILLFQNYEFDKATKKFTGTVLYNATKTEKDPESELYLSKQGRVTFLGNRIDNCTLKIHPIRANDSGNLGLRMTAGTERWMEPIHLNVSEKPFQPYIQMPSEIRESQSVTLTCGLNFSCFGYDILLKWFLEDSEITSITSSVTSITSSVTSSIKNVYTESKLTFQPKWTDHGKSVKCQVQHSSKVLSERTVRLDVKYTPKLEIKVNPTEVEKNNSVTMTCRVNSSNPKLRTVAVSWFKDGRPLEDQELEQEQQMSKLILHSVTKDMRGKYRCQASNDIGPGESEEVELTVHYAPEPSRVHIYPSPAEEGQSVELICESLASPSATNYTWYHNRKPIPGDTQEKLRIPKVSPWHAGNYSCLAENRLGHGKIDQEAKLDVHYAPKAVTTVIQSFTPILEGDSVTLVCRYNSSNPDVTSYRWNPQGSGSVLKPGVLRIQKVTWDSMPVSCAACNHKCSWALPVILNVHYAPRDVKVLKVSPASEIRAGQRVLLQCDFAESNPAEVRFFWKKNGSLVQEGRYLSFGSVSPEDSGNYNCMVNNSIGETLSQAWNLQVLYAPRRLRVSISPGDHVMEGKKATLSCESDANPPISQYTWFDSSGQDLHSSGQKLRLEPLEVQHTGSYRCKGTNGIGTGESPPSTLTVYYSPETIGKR
Experimental: as §1, §2, §3

T1 sequence (P20273 20-687 limits assumed): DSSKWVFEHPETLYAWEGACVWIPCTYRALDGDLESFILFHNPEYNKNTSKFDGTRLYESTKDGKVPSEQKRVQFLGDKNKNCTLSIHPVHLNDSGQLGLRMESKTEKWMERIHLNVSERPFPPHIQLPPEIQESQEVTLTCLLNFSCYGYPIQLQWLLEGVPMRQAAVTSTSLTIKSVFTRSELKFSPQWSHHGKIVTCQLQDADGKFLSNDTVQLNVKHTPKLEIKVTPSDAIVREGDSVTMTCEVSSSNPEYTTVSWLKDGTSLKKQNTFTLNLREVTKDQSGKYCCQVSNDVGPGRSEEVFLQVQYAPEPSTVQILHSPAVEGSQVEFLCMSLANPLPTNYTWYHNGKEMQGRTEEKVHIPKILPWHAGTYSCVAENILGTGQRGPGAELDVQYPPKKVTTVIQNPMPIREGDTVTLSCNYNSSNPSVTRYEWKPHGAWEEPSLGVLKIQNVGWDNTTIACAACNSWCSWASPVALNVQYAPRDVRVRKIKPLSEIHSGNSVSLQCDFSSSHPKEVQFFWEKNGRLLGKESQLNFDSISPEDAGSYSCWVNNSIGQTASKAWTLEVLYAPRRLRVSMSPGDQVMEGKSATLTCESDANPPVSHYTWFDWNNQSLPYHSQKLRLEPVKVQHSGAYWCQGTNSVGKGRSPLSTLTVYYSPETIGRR

SMILES	Kd (human CD22) [nM]	Kd (mouse CD22) [nM]	Human Siglec-2 Binding Affinity (human CD22)	Mouse Siglec-2 Binding Affinity (mouse CD22)
C#CCCO[C@@H]1O[C@H](CO[C@]2(C(=O)O)C[C@H](O)[C@@H](NC(=O)CO)[C@H]([C@H](O)[C@H](O)CNC(=O)Cc3ccc(-c4ccccc4)cc3)O2)[C@H](O)[C@H](O)[C@H]1O	2500	17200	–	–
O=C(CCOCCOCCn1cc(CCO[C@@H]2O[C@H](CO[C@]3(C(=O)O)C[C@H](O)[C@@H](NC(=O)CO)[C@H]([C@H](O)[C@H](O)CNC(=O)Cc4ccc(-c5ccccc5)cc4)O3)[C@H](O)[C@H](O)[C@H]2O)nn1)NCCCCC(NC(=O)CCCNC(=O)CCOCCOCCn1cc(CCO[C@@H]2O[C@H](CO[C@]3(C(=O)O)C[C@H](O)[C@@H](NC(=O)CO)[C@H]([C@H](O)[C@H](O)CNC(=O)Cc4ccc(-c5ccccc5)cc4)O3)[C@H](O)[C@H](O)[C@H]2O)nn1)C(=O)NCCOCCOCCOCCOCCC(=O)Oc1c(F)c(F)c(F)c(F)c1F (mixture of isomers) [Cpd. No. 26416]	–	–	Strong	Strong
CC(=O)N[C@H]1[C@H]([C@H](O)[C@H](O)CNC(=O)c2cccc(Oc3ccccc3)c2)O[C@@](OC[C@H]2O[C@@H](OCCc3cn(CCOCCOCCC(=O)NCCCC[C@H](NC(=O)CCCNC(=O)CCOCCOCCn4cc(CCO[C@@H]5O[C@H](CO[C@]6(C(=O)O)C[C@H](O)[C@@H](NC(C)=O)[C@H]([C@H](O)[C@H](O)CNC(=O)c7cccc(Oc8ccccc8)c7)O6)[C@H](O)[C@H](O)[C@H]5O)nn4)C(=O)NCCOCCOCCOCCOCCC(=O)Oc4c(F)c(F)c(F)c(F)c4F)nn3)[C@H](O)[C@@H](O)[C@H]2O)(C(=O)O)C[C@@H]1O (mixture of isomers) [Cpd. No. 26468]	–	–	Strong	V. weak
CC(=O)N[C@H]1[C@H]([C@H](O)[C@H](O)CNC(=O)c2cccc(Oc3ccccc3)c2)O[C@@](OCCOCCOCc2cn(CCOCCOCCOCCOCCC(=O)Oc3c(F)c(F)c(F)c(F)c3F)nn2)(C(=O)O)C[C@@H]1O [Cpd. No. 24836, (2R,4S,5R,6R)-5-acetamido-6-((1R,2R)-1,2-dihydroxy-3-(3-phenoxybenzamido)propyl)-4-hydroxy-2-(2-(2-((1-(15-oxo-15-(perfluorophenoxy)-3,6,9,12-tetraoxapentadecyl)-1H-1,2,3-triazol-4-yl)methoxy)ethoxy)ethoxy)tetrahydro-2H-pyran-2-carboxylic acid]	–	–	Strong	V. weak
C#CCOCCOCCO[C@]1(C(=O)O)C[C@H](O)[C@@H](NC(C)=O)[C@H]([C@H](O)[C@H](O)CNC(=O)c2cccc(Oc3ccccc3)c2)O1 [Cpd. No. 26334, (2R,4S,5R,6R)-5-acetamido-6-((1R,2R)-1,2-dihydroxy-3-(3-phenoxybenzamido)propyl)-4-hydroxy-2-(2-(2-(prop-2-yn-1-yloxy)ethoxy)ethoxy)tetrahydro-2H-pyran-2-carboxylic acid]	930	> 100000	–	–
C#CCCO[C@@H]1O[C@H](CO[C@]2(C(=O)O)C[C@H](O)[C@@H](NC(C)=O)[C@H]([C@H](O)[C@H](O)CNC(=O)c3cccc(Oc4ccccc4)c3)O2)[C@H](O)[C@H](O)[C@H]1O [Cpd. No. 26409, (2R,4S,5R,6R)-5-acetamido-2-(((2R,3R,4S,5R,6R)-6-(but-3-yn-1-yloxy)-3,4,5-trihydroxytetrahydro-2H-pyran-2-yl)methoxy)-6-((1R,2R)-1,2-dihydroxy-3-(3-phenoxybenzamido)propyl)-4-hydroxytetrahydro-2H-pyran-2-carboxylic acid]	1000	> 100000	–	–
O=C(Cc1ccc(-c2ccccc2)cc1)NC[C@@H](O)[C@@H](O)[C@@H]1O[C@@](OC[C@H]2O[C@@H](OCCc3cn(CCOCCOCCOCCOCCC(=O)Oc4c(F)c(F)c(F)c(F)c4F)nn3)[C@H](O)[C@@H](O)[C@H]2O)(C(=O)O)C[C@H](O)[C@H]1NC(=O)CO [Cpd. No. 26415, (2R,4S,5R,6R)-6-((1R,2R)-3-(2-([1,1′-biphenyl]-4-yl)acetamido)-1,2-dihydroxypropyl)-4-hydroxy-5-(2-hydroxyacetamido)-2-(((2R,3R,4S,5R,6R)-3,4,5-trihydroxy-6-(2-(1-(15-oxo-15-(perfluorophenoxy)-3,6,9,12-tetraoxapentadecyl)-1H-1,2,3-triazol-4-yl)ethoxy)tetrahydro-2H-pyran-2-yl)methoxy)tetrahydro-2H-pyran-2-carboxylic acid]	–	–	Strong	Strong

The remaining lines, values ahead:

Kd (human CD22) [nM]	Kd (mouse CD22) [nM]	Human Siglec-2 Binding Affinity (human CD22)	Mouse Siglec-2 Binding Affinity (mouse CD22)	SMILES
–	–	Strong	V. weak	CC(=O)N[C@H]1[C@H]([C@H](O)[C@H](O)CNC(=O)c2cccc(Oc3ccccc3)c2)O[C@@](OC[C@H]2O[C@@H](OCCc3cn(CCOCCOCCOCCOCCC(=O)Oc4c(F)c(F)c(F)c(F)c4F)nn3)[C@H](O)[C@@H](O)[C@H]2O)(C(=O)O)C[C@@H]1O [Cpd. No. 24906, (2R,4S,5R,6R)-5-acetamido-6-((1R,2R)-1,2-dihydroxy-3-(3-phenoxybenzamido)propyl)-4-hydroxy-2-(((2R,3R,4S,5R,6R)-3,4,5-trihydroxy-6-(2-(1-(15-oxo-15-(perfluorophenoxy)-3,6,9,12-tetraoxapentadecyl)-1H-1,2,3-triazol-4-yl)ethoxy)tetrahydro-2H-pyran-2-yl)methoxy)tetrahydro-2H-pyran-2-carboxylic acid]
–	–	Strong	Strong	O=C(Cc1ccc(-c2ccccc2)cc1)NC[C@@H](O)[C@@H](O)[C@@H]1O[C@@](OCCOCCOCc2cn(CCOCCOCCOCCOCCC(=O)Oc3c(F)c(F)c(F)c(F)c3F)nn2)(C(=O)O)C[C@H](O)[C@H]1NC(=O)CO [Cpd. No. 26288, (2R,4S,5R,6R)-6-((1R,2R)-3-(2-([1,1′-biphenyl]-4-yl)acetamido)-1,2-dihydroxypropyl)-4-hydroxy-5-(2-hydroxyacetamido)-2-(2-(2-((1-(15-oxo-15-(perfluorophenoxy)-3,6,9,12-tetraoxapentadecyl)-1H-1,2,3-triazol-4-yl)methoxy)ethoxy)ethoxy)tetrahydro-2H-pyran-2-carboxylic acid]
–	–	Strong	V. weak	CC(=O)N[C@H]1[C@H]([C@H](O)[C@H](O)CNC(=O)c2cccc(Oc3ccccc3)c2)O[C@@](OCCOCc2cn(CCOCCOCCC(=O)NCCCC[C@H](NC(=O)CCCNC(=O)CCOCCOCCn3cc(COCCO[C@]4(C(=O)O)C[C@H](O)[C@@H](NC(C)=O)[C@H]([C@H](O)[C@H](O)CNC(=O)c5cccc(Oc6ccccc6)c5)O4)nn3)C(=O)NCCOCCOCCOCCOCCC(=O)Oc3c(F)c(F)c(F)c(F)c3F)nn2)(C(=O)O)C[C@@H]1O [Cpd. No. 26289, (2R,2′R,4S,4′S,5R,5′R,6R,6′R)-2,2′-(((((((S)-9,14,22-trioxo-16-((15-oxo-15-(perfluorophenoxy)-3,6,9,12-tetraoxapentadecyl)carbamoyl)-3,6,25,28-tetraoxa-10,15,21-triazatriacontane-1,30-diyl)bis(1H-1,2,3-triazole-1,4-diyl))bis(methylene))bis(oxy))bis(ethane-2,1-diyl))bis(oxy))bis(5-acetamido-6-((1R,2R)-1,2-dihydroxy-3-(3-phenoxybenzamido)propyl)-4-hydroxytetrahydro-2H-pyran-2-carboxylic acid)]
